{"source": "patent US20230292743A1", "about": "“Method for increasing the lifespan and motility of animal sperm using an inhibitor of Slo3 potassium channel” (IMV TECHNOLOGIES, priority 2017, published 2023)", "tested_on": "mouse sperm", "assay": "Ability of mouse sperm to fertilize oocytes after incubation in capacitation medium (in vitro fertilization, 2-cell embryos)", "format": "cell-based", "conditions": "25 μM quinidine in M16-BSA medium, 12 hours incubation, vs control", "procedure": "Mouse sperm was obtained by manual trituration of caudae epididymides from male and were allowed to swim in M2 medium (from Sigma) for 10 minutes. The M2 medium composition in g/L is as follows: CaCl2 0.25; MgSO4 (anhydrous) 0.1649; KCl 0.35635; K2HPO4 0.162; NaHCO3 0.35; NaCl 5.53193; Albumin, Bovine Fraction V 4.0; D-Glucose 1.0; HEPES (for 4-(2-HydroxyEthyl)-1-Piperazine EthaneSulfonic acid)×Na 5.42726; Pyruvic Acid×Na 0.0363; DL-Lactic Acid×Na 2.95). Sperm were then capacitated in M16 medium (from Sigma) with 2% fatty acid-free BSA (for Bovine Serum Albumin) (named “M16-BSA medium”) at 37° C. in a 5% v/v CO2 incubator for different times as specified. M16 medium is a commercial and commonly used medium for in vitro fertilization and culture of preimplantation stage embryos. Oocytes were collected from mature OF1 females, synchronized with 5 units of pregnant mare serum gonadotrophin (PMSG) and 5 units of human chorionic gonadotrophin (HCG). Cumulus were harvested directly from the ampulla and sperm were injected into the M16 droplets containing the cumulus. 1. The first test related to the ability of mouse sperm to fertilize oocytes when incubated prior fertilization in a capacitation medium containing clofilium with regard to a control medium, which is the same capacitation medium but without clofilium. The capacitation medium was M16-BSA medium. The control medium was the M16-BSA medium containing the sperm. It was compared to the same medium further including clofilium at a concentration of 5 μM (in the M16-BSA medium containing the sperm). Sperm was incubated in M16-BSA medium with or without clofilium and then added to M16 droplets containing the cumulus comprising the oocytes. Two-cell embryos were counted at 48 h post insemination (n=3). The number of oocytes reaching the two-cell stage were counted at 48 hours after fertilization. Two different concentrations of clofilium were tested: 0.2 μM of clofilium and 5 μM of clofilium (in the M16-BSA medium containing the sperm). The sperm incubation time prior fertilization was 12 hours. The test related to the ability of mouse sperm to fertilize oocytes, sperm being incubated prior fertilization in a medium containing quinidine with regard to a control medium, without quinidine. The control medium was the M16-BSA medium containing the sperm (“control”). It was compared to the same medium further including quinidine, at various concentrations 5 μM quinidine (“5 μM quinidine”), 10 μM quinidine (“10 μM quinidine”), 25 μM quinidine (“25 μM quinidine”) and 100 μM quinidine (“100 μM quinidine”)."}
{"molecule": "C=C[C@H]1CN2CC[C@H]1C[C@@H]2[C@@H](O)c1ccnc2ccc(OC)cc12", "note": "[quinidine, (9S)-6′-methoxycinchonan-9-ol]", "values": [{"measurement": "percentage of 2-cell embryos vs mature oocytes at 24 h post fertilization (sperm lifespan)", "value": "better lifespan than the non-treated"}]}
